The text below walks through data of patent publication US20230124361A1, “SMALL MOLECULE STING ANTAGONISTS” (CURADEV PHARMA PVT. LTD., priority 2020, published 2023).

pIC50: −log10 of the molar value.

T1 sequence (Q86WV6 whole entry R71H/G230A/H232R/R293Q): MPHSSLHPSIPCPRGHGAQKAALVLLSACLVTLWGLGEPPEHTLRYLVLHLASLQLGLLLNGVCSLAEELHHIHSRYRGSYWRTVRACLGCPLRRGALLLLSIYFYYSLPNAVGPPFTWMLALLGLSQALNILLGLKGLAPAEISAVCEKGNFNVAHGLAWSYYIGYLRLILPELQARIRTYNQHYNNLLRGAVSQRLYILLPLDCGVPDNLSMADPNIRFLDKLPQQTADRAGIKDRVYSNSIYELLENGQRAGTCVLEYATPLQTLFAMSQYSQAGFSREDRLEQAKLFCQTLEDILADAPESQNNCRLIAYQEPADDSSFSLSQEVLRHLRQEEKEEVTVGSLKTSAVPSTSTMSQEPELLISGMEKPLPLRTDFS

This assay concerns the target T1, STING (Homo sapiens, UniProt Q86WV6, G230A/H232R/R293Q/R71H).
T1 construct: host or cells: THP1-Dual cells (human THP-1 monocyte line with Lucia/SEAP reporters)
Description: Reporter gene expression assay in THP1-Dual cells (IRF pathway Lucia luciferase, 2',3'-cGAMP stimulation). Conditions: 10 min preincubation, 5 μM 2',3'-cGAMP, 20 hr, IRF reporter QUANTI-Luc, read-out: THP-1 (HAQ) Activity. The class given is cell-based. In outline:
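THP1-Dual cells preincubated 10 min with compound, then stimulated with 5 μM 2′,3′-cGAMP for 20 hr. Secreted Lucia luciferase (IRF reporter) measured in supernatant by luminescence; IC50 reported as ranges (A ≤1 μM, B >1–≤10 μM, C >10 μM).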
Turning to `CNC(=O)C(c1ccccc1)N1CCOc2ccc(NC(=O)Nc3ccc4cc[nH]c4c3)cc21` (stereo not shown) [Example 189, 2-(6-(3-(1H-indol-6-yl)ureido)-2,3-dihydro-4H-benzo[b][1,4]oxazin-4-yl)-N-methyl-2-phenylacetamide], the pIC50 is 5.00 to 6.00.

For the molecule `O=C(Nc1ccc2c(c1)N(C(C(=O)NC1CC1)c1ccccc1)CCO2)Nc1ccc2cc[nH]c2c1` (stereo not shown) [Example 190, 2-(6-(3-(1H-indol-6-yl)ureido)-2,3-dihydro-4H-benzo[b][1,4]oxazin-4-yl)-N-cyclopropyl-2-phenylacetamide], the pIC50 was 5.00 to 6.00.

Regarding `O=C1CSc2ccc(N3CCN(c4ccc5cc[nH]c5c4)CC3)cc2N1Cc1ccccc1` [Example 191, 6-(4-(1H-Indol-6-yl)piperazin-1-yl)-4-benzyl-2H-benzo[b][1,4]thiazin-3(4H)-one], the pIC50 is 5.00 to 6.00.

On to `N#C/N=C(\Nc1ccc2c(c1)N(Cc1ccccc1)C(=O)CS2)Nc1ccc2cc[nH]c2c1` [Example 192], for which the pIC50 is < 5.00.

For `CN1C(=O)CSc2ccc(NC(=O)Nc3ccc(F)cc3)cc21` [Example 193, l-(4-fluorophenyl)-3-(4-methyl-3-oxo-3,4-dihydro-2H-benzo[b][1, 4]thiazin-6-yl)urea], the pIC50 is < 5.00.

Consider `Nc1ncc2c(n1)CCN(C(=O)Nc1ccc3c(c1)N(Cc1ccccc1)C(=O)CS3)C2` [Example 194, 2-amino-N-(4-benzyl-3-oxo-3,4-dihydro-2H-benzo[b][1, 4]thiazin-6-yl)-7,8-dihydropyrido [4,3-d] pyrimidine-6(5H)-carboxamide], for which the pIC50 was < 5.00.

With `O=C1CSc2ccc(NC(=O)Nc3ccc4cc[nH]c4c3)cc2N1` [Example 195, 1-(1H-indol-6-yl)-3-(3-oxo-3,4-dihydro-2H-benzo[b][1, 4]thiazin-6-yl)urea], the pIC50 was < 5.00.
